Laboratory results taken from ChEMBL document CHEMBL4219063, “New photodynamic molecular beacons (PMB) as potential cancer-targeted agents in PDT” (Bioorg Med Chem, 2018).
Active and inactive are the calls of the source. The rule behind the calls is not given here. Square brackets hold non-standard residues; d marks the D form. Peptide text beside a SMILES is read from it. * marks the point of attachment. ξ: configuration not given here. Benzoyl(4-TriPhPorphyrinyl) = O=C(c1ccc(-c2c3nc(c(-c4ccccc4)c4ccc([nH]4)c(-c4ccccc4)c4nc(c(-c5ccccc5)c5ccc2[nH]5)C=C4)C=C3)cc1)*; Pyropheophorbide(a) = C=Cc1c(C)c2cc3nc(c4c5[nH]c(cc6nc(cc1[nH]2)C(C)=C6CC)c(C)c5C(=O)C4)[C@@H](CCC(=O)*)[C@@H]3C; X2 = COc1cc(/N=N/c2cc3c4c(c2OCCCCCC(=O)*)CCCN4CCC3)c(OC)cc1/N=N/c1ccc([N+](=O)[O-])cc1; X1 = CCN(CC)c1ccc2nc3ccc(/N=N/c4ccc(N(C)CCCC(=O)*)cc4)cc3[n+](-c3ccccc3)c2c1; ξThr(3R) = C[C@@H](O)C(N)C(=O)O; AEEA = NCCOCCOCC(=O)O

How the values were obtained:
MMP2 = MMP2 (Homo sapiens, UniProt P08253); assay: Substrate activity at MMP2 (unknown origin) assessed as enzyme-mediated substrate hydrolysis at 100 umol/L after 8 hrs by UV-HPLC method relative to control; type: ADME; conditions: read-out: Drug metabolism
Sequence of MMP2 (P08253 whole entry): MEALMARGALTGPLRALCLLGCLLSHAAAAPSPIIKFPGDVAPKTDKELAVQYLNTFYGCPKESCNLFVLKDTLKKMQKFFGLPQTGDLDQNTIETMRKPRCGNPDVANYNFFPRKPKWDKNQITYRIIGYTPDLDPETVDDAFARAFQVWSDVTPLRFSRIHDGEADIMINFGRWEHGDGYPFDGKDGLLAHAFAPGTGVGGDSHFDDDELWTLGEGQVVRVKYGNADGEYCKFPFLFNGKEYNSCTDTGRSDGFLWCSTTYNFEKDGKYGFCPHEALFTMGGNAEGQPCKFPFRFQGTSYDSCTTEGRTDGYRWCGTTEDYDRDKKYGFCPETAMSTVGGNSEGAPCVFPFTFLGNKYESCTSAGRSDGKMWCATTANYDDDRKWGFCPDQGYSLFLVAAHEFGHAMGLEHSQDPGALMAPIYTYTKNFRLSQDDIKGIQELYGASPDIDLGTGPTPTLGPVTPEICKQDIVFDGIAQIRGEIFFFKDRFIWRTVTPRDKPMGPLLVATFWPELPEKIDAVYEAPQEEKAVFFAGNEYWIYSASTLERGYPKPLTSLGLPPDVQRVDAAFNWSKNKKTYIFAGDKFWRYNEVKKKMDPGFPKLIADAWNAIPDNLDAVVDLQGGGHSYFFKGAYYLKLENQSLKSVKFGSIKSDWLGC

MMP14 = MMP14 (Homo sapiens, UniProt P50281); assay: Substrate activity at MMP14 (unknown origin) assessed as enzyme-mediated substrate hydrolysis at 100 umol/L after 8 hrs by UV-HPLC method relative to control; type: ADME; conditions: read-out: Drug metabolism
MMP9 = MMP9 (Homo sapiens, UniProt P14780); assay: Substrate activity at MMP9 (unknown origin) assessed as enzyme-mediated substrate hydrolysis at 100 umol/L after 8 hrs by UV-HPLC method relative to control; type: ADME; conditions: read-out: Drug metabolism
Sequence of MMP9 (P14780 whole entry): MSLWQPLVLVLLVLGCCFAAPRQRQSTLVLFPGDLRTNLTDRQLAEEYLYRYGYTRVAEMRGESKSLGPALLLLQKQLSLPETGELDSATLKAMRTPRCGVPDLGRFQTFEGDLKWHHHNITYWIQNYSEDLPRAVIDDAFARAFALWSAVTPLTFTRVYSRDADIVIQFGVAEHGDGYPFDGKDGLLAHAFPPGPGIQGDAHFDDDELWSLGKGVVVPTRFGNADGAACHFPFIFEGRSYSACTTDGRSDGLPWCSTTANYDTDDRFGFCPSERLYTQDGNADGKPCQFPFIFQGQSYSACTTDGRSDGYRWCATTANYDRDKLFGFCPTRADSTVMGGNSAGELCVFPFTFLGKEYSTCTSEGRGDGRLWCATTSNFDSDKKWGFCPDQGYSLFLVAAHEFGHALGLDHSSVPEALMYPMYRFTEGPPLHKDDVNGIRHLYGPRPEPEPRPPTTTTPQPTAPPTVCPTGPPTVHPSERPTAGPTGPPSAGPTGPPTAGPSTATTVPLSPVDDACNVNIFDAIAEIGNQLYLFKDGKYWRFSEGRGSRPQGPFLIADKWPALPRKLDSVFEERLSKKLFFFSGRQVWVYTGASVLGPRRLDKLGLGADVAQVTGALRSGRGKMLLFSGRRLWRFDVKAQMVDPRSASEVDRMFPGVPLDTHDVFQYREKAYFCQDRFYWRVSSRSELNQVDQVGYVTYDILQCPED

[1] = In vitro photodynamic activity in ethanol assessed as fluorescence quenching by time-correlated single photon counting method; type: functional
[2] = In vitro photodynamic activity in ethanol assessed as decrease in singlet oxygen production by spectrophotometry; type: functional; design: scale not given: the % may be the effect or the level left
[3] = target: Matrix metalloproteinase-14 (Mus musculus) (UniProt P53690); assay: Substrate activity at MT1-MMP in mouse B16F1 cells assessed as enzyme-mediated substrate cleavage at 100 uM after 24 hrs by HPLC analysis; type: cell-based

| Compound | metabolised at 8 h, 100 µM (MMP2) [%] | metabolised at 8 h, 100 µM (MMP14) [%] | Activity [1] [%] | Activity [2] [%] | further results |
| --- | --- | --- | --- | --- | --- |
| H-GRIGFLRTAKGG-OH | 26 | 99 |  |  |  |
| C=Cc1c(C)c2cc3nc(c4c5[nH]c(cc6nc(cc1[nH]2)C(C)=C6CC)c(C)c5C(=O)C4)[C@@H](CCC(=O)NCC(=O)N[C@@H](CCCNC(=N)N)C(=O)N[C@H](C(=O)NCC(=O)N[C@@H](Cc1ccccc1)C(=O)N[C@@H](CC(C)C)C(=O)N[C@@H](CCCNC(=N)N)C(=O)N[C@H](C(=O)N[C@@H](C)C(=O)N[C@@H](CCCCN)C(=O)NCC(=O)NCC(=O)O)[C@@H](C)O)[C@@H](C)CC)[C@@H]3C ({Pyropheophorbide(a)}-GRIGFLRTAKGG-OH) |  |  |  |  | metabolised at 8 h, 100 µM (MMP9): 5% |
| CC[C@H](C)[C@H](NC(=O)[C@H](CCCNC(=N)N)NC(=O)CNC(=O)c1ccc(-c2c3nc(c(-c4ccccc4)c4ccc([nH]4)c(-c4ccccc4)c4nc(c(-c5ccccc5)c5ccc2[nH]5)C=C4)C=C3)cc1)C(=O)NCC(=O)N[C@@H](Cc1ccccc1)C(=O)N[C@@H](CC(C)C)C(=O)N[C@@H](CCCNC(=N)N)C(=O)N[C@H](C(=O)N[C@@H](C)C(=O)N[C@@H](CCCCNC(=O)CCCN(C)c1ccc(/N=N/c2ccc3nc4ccc(N(CC)CC)cc4[n+](-c4ccccc4)c3c2)cc1)C(=O)NCC(=O)NCC(=O)O)[C@@H](C)O ({Benzoyl(4-TriPhPorphyrinyl)}-GRIGFLRTAK(X1)GG-OH) |  |  | 80 | 100 |  |
| CC[C@H](C)[C@H](NC(=O)[C@H](CCCNC(=N)N)NC(=O)CNC(=O)COCCOCCN)C(=O)NCC(=O)N[C@@H](Cc1ccccc1)C(=O)N[C@@H](CC(C)C)C(=O)N[C@@H](CCCNC(=N)N)C(=O)N[C@H](C(=O)N[C@@H](C)C(=O)N[C@@H](CCCCN)C(=O)NCC(=O)NCC(=O)O)[C@@H](C)O (H-[AEEA]GRIGFLRTAKGG-OH) | 20 | 100 |  |  |  |
| CC[C@H](C)[C@H](NC(=O)[C@H](CCCNC(=N)N)NC(=O)CNC(=O)COCCOCCNC(=O)c1ccc(-c2c3nc(c(-c4ccccc4)c4ccc([nH]4)c(-c4ccccc4)c4nc(c(-c5ccccc5)c5ccc2[nH]5)C=C4)C=C3)cc1)C(=O)NCC(=O)N[C@@H](Cc1ccccc1)C(=O)N[C@@H](CC(C)C)C(=O)N[C@@H](CCCNC(=N)N)C(=O)N[C@H](C(=O)N[C@@H](C)C(=O)N[C@@H](CCCCNC(=O)CCCN(C)c1ccc(/N=N/c2ccc3nc4ccc(N(CC)CC)cc4[n+](-c4ccccc4)c3c2)cc1)C(=O)NCC(=O)NCC(=O)O)[C@@H](C)O ({Benzoyl(4-TriPhPorphyrinyl)-AEEA}-GRIGFLRTAK(X1)GG-OH) |  |  | 80 | 100 |  |
| C=Cc1c(C)c2cc3nc(c4c5[nH]c(cc6nc(cc1[nH]2)C(C)=C6CC)c(C)c5C(=O)C4)[C@@H](CCC(=O)NCC(=O)N[C@@H](CCCNC(=N)N)C(=O)N[C@H](C(=O)NCC(=O)N[C@@H](Cc1ccccc1)C(=O)N[C@@H](CC(C)C)C(=O)N[C@@H](CCCNC(=N)N)C(=O)N[C@H](C(=O)N[C@@H](C)C(=O)N[C@@H](CCCCNC(=O)CCCN(C)c1ccc(/N=N/c2ccc4nc5ccc(N(CC)CC)cc5[n+](-c5ccccc5)c4c2)cc1)C(=O)NCC(=O)NCC(=O)O)[C@@H](C)O)[C@@H](C)CC)[C@@H]3C ({Pyropheophorbide(a)}-GRIGFLRTAK(X1)GG-OH) |  |  | 93 | 100 |  |
| CC[C@H](C)[C@H](NC(=O)[C@H](CCCNC(=N)N)NC(=O)CN)C(=O)NCC(=O)N[C@@H](Cc1ccccc1)C(=O)N[C@@H](CC(C)C)C(=O)N[C@@H](CCCNC(=N)N)C(=O)NC(C(=O)N[C@@H](C)C(=O)N[C@@H](CCCCNC(=O)CCCN(C)c1ccc(/N=N/c2ccc3nc4ccc(N(CC)CC)cc4[n+](-c4ccccc4)c3c2)cc1)C(=O)NCC(=O)NCC(=O)O)[C@@H](C)O (stereo partly drawn) (H-GRIGFLR[ξThr(3R)]AK(X1)GG-OH) | 26 | 86 |  |  |  |
| CC[C@H](C)[C@H](NC(=O)[C@H](CCCNC(=N)N)NC(=O)CNC(=O)c1ccc(-c2c3nc(c(-c4ccccc4)c4ccc([nH]4)c(-c4ccccc4)c4nc(c(-c5ccccc5)c5ccc2[nH]5)C=C4)C=C3)cc1)C(=O)NCC(=O)N[C@@H](Cc1ccccc1)C(=O)N[C@@H](CC(C)C)C(=O)N[C@@H](CCCNC(=N)N)C(=O)N[C@H](C(=O)N[C@@H](C)C(=O)N[C@@H](CCCCNC(=O)CCCCCOc1c(/N=N/c2cc(OC)c(/N=N/c3ccc([N+](=O)[O-])cc3)cc2OC)cc2c3c1CCCN3CCC2)C(=O)NCC(=O)NCC(=O)O)[C@@H](C)O ({Benzoyl(4-TriPhPorphyrinyl)}-GRIGFLRTAK(X2)GG-OH) |  |  | 90 | 80 | Activity [3]: Active |
| CC[C@H](C)[C@H](NC(=O)[C@H](CCCNC(=N)N)NC(=O)CN)C(=O)NCC(=O)N[C@@H](Cc1ccccc1)C(=O)N[C@@H](CC(C)C)C(=O)N[C@@H](CCCNC(=N)N)C(=O)N[C@H](C(=O)N[C@@H](C)C(=O)N[C@@H](CCCCNC(=O)CCCCCOc1c(/N=N/c2cc(OC)c(/N=N/c3ccc([N+](=O)[O-])cc3)cc2OC)cc2c3c1CCCN3CCC2)C(=O)NCC(=O)NCC(=O)O)[C@@H](C)O |  | 31 |  |  |  |
| CC[C@H](C)[C@H](NC(=O)[C@H](CCCNC(=N)N)NC(=O)CNC(=O)COCCOCCNC(=O)c1ccc(-c2c3nc(c(-c4ccccc4)c4ccc([nH]4)c(-c4ccccc4)c4nc(c(-c5ccccc5)c5ccc2[nH]5)C=C4)C=C3)cc1)C(=O)NCC(=O)N[C@@H](Cc1ccccc1)C(=O)N[C@@H](CC(C)C)C(=O)N[C@@H](CCCNC(=N)N)C(=O)N[C@H](C(=O)N[C@@H](C)C(=O)N[C@@H](CCCCN)C(=O)NCC(=O)NCC(=O)O)[C@@H](C)O ({Benzoyl(4-TriPhPorphyrinyl)-AEEA}-GRIGFLRTAKGG-OH) | 3 |  |  |  | metabolised at 8 h, 100 µM (MMP9): 2% |
| C=Cc1c(C)c2cc3nc(c4c5[nH]c(cc6nc(cc1[nH]2)C(C)=C6CC)c(C)c5C(=O)C4)[C@@H](CCC(=O)NCC(=O)N[C@@H](CCCNC(=N)N)C(=O)N[C@H](C(=O)NCC(=O)N[C@@H](Cc1ccccc1)C(=O)N[C@@H](CC(C)C)C(=O)N[C@@H](CCCNC(=N)N)C(=O)N[C@H](C(=O)N[C@@H](C)C(=O)N[C@@H](CCCCNC(=O)CCCCCOc1c(/N=N/c2cc(OC)c(/N=N/c4ccc([N+](=O)[O-])cc4)cc2OC)cc2c4c1CCCN4CCC2)C(=O)NCC(=O)NCC(=O)O)[C@@H](C)O)[C@@H](C)CC)[C@@H]3C ({Pyropheophorbide(a)}-GRIGFLRTAK(X2)GG-OH) |  |  | 88 | 77 |  |
